Data: ChEMBL document CHEMBL4414547, “Discovery of a novel 2,5-dihydroxycinnamic acid-based 5-lipoxygenase inhibitor that induces apoptosis and may impair autophagic flux in RCC4 renal cancer cells” (Eur J Med Chem, 2019)
Calls of active or inactive are those of the source. The calls are words filed in the database; no cut-off is given here.

How the values were obtained:
[1] = molecular target: T1, Polyunsaturated fatty acid 5-lipoxygenase (Homo sapiens) (UniProt P09917); assay: Inhibition of human 5-LO transfected in HEK293 cells coexpressing FLAP assessed as leukotriene formation at 1 uM using arachidonic acid as substrate preincubated for 5 mins followed by calcium ionophore A23187/arachidonic acid addition and measured after 15 mins by RP-HPLC analysis relative to control; format: cell-based; parameters: scale not given: the % may be the effect or the level left
T1 sequence (whole entry): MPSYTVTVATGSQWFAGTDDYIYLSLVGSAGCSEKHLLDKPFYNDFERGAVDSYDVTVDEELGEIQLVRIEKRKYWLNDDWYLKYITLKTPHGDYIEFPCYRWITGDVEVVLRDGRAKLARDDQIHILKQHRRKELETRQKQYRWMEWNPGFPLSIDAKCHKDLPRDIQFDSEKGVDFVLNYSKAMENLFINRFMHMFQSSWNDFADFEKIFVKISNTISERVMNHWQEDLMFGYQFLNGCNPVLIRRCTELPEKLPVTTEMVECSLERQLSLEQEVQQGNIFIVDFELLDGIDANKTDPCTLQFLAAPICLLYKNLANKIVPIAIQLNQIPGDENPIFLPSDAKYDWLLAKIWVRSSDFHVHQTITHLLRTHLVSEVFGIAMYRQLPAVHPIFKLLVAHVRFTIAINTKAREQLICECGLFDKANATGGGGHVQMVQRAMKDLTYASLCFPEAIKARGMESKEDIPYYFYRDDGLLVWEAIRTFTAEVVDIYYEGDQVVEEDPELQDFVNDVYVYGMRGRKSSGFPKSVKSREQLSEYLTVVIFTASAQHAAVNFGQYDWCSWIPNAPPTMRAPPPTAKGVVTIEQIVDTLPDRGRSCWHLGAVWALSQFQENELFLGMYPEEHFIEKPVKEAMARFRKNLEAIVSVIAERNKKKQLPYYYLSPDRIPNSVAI

[2] = molecular target: T1, Polyunsaturated fatty acid 5-lipoxygenase (Homo sapiens); assay: Inhibition of human 5-LO transfected in HEK293 cells coexpressing FLAP assessed as reduction in leukotriene formation at 1 uM using arachidonic acid as substrate preincubated for 5 mins followed by calcium ionophore A23187/arachidonic acid addition and measured after 15 mins by RP-HPLC analysis; format: cell-based
[3] = molecular target: T1, Polyunsaturated fatty acid 5-lipoxygenase (Homo sapiens); assay: Inhibition of 5-LO in human PMNL cells assessed as reduction in leukotriene formation at 1 uM preincubated for 5 mins followed by thapsigargin stimulation measured after 15 mins by RP-HPLC analysis relative to control; format: cell-based
[4] = molecular target: T2, Polyunsaturated fatty acid 5-lipoxygenase (Homo sapiens, UniProt P09917); assay: (§1) Inhibition of 5-LO in human PMNL cells assessed as reduction in leukotriene formation preincubated for 5 mins followed by thapsigargin stimulation measured after 15 mins by RP-HPLC analysis; format: cell-based
T2 sequence (P09917 whole entry): T1 sequence (whole entry)

[5] = Antioxidant activity assessed as DPPH radical scavenging activity incubated for 30 mins under dark condition; format: functional
[6] = Cytotoxicity against VHL-positive human RCC10 cells assessed as reduction in cell viability incubated for 4 days by XTT assay; format: functional, cell-based; settings: 96 h
[7] = system: RCC4; assay: Cytotoxicity against VHL-deficient human RCC4 cells assessed as reduction in cell viability incubated for 4 days by XTT assay; format: functional, cell-based; settings: for IC50: RCC4, 96 h
[8] = system: RCC4/VHL; assay: Cytotoxicity against VHL-positive human RCC4/VHL cells assessed as reduction in cell viability incubated for 4 days by XTT assay; format: functional, cell-based; settings: for IC50: 96 h
[9] = Cytotoxicity against VHL-deficient human RCC10 cells assessed as reduction in cell viability incubated for 4 days by XTT assay; format: functional, cell-based; settings: 96 h
[10] = system: 786-0; assay: Cytotoxicity against VHL-deficient human 786-0 cells assessed as reduction in cell viability incubated for 4 days by XTT assay; format: functional, cell-based; settings: 786-0, 96 h
[11] = system: 786-0; assay: Cytotoxicity against VHL-positive human 786-0 cells assessed as reduction in cell viability incubated for 4 days by XTT assay; format: functional, cell-based; settings: 786-0, 96 h
[12] = Selectivity ratio of IC50 for VHL-positive human RCC4/VHL cells to IC50 for VHL-deficient human RCC4 cells; format: functional
[13] = system: RCC4; assay: Induction of apoptosis in VHL-deficient human RCC4 cells assessed as cleavage of pro-caspase 3 at 0.5 uM incubated for 24 hrs by Western blot analysis; format: functional, cell-based
[14] = system: DNA; assay: Induction of DNA damage in VHL-deficient human RCC4 cells assessed as increase in p53 expression at 0.5 uM incubated for 24 hrs by Western blot analysis; format: cell-based
[15] = system: DNA; assay: Induction of DNA damage in human RCC4/VHL cells assessed as increase in p53 expression at 0.5 uM incubated for 24 hrs by Western blot analysis; format: cell-based
[16] = system: RCC4/VHL; assay: Induction of apoptosis in human RCC4/VHL cells assessed as cleavage of pro-caspase 3 at 0.5 uM incubated for 24 hrs by Western blot analysis; format: functional, cell-based
[17] = molecular target: T1, Polyunsaturated fatty acid 5-lipoxygenase (Homo sapiens); assay: as §1; format: cell-based
[18] = molecular target: T1, Polyunsaturated fatty acid 5-lipoxygenase (Homo sapiens); assay: Potency index, ratio of Zileuton IC50 to compound IC50 for inhibition of 5-LO in human PMNL cells assessed as reduction in leukotriene formation preincubated for 5 mins followed by thapsigargin stimulation measured after 15 mins by RP-HPLC analysis; format: cell-based
[19] = molecular target: T1, Polyunsaturated fatty acid 5-lipoxygenase (Homo sapiens); assay: Potency index, ratio of CAPE IC50 to compound IC50 for inhibition of 5-LO in human PMNL cells assessed as reduction in leukotriene formation preincubated for 5 mins followed by thapsigargin stimulation measured after 15 mins by RP-HPLC analysis; format: cell-based
[20] = system: RCC4; assay: Induction of autophagy in VHL-deficient human RCC4 cells assessed as increase in conversion of LC3B1 to LC3B2 expression at 2.5 to 10 uM incubated for 24 hrs by Western blot analysis; format: functional, cell-based
[21] = system: RCC4; assay: Induction of apoptosis in VHL-deficient human RCC4 cells assessed as cleavage of pro-caspase 3 after 24 hrs by Western blot analysis; format: functional, cell-based
[22] = system: RCC4; assay: Induction of DNA damage in VHL-deficient human RCC4 cells assessed as induction of p53 expression at 2.5 to 10 uM incubated for 24 hrs by Western blot analysis; format: functional, cell-based
[23] = system: RCC4/VHL; assay: Induction of DNA damage in human RCC4/VHL cells assessed as induction of p53 expression at 2.5 to 10 uM incubated for 24 hrs by Western blot analysis; format: functional, cell-based
[24] = system: RCC4/VHL; assay: Induction of autophagy in human RCC4/VHL cells assessed as increase in conversion of LC3B1 to LC3B2 expression at 2.5 to 10 uM incubated for 24 hrs by Western blot analysis; format: functional, cell-based
[25] = system: RCC4; assay: Inhibition of autophagic flux in VHL-deficient human RCC4 cells assessed as increase in p62 expression at 2.5 to 10 uM incubated for 24 hrs by Western blot analysis; format: functional, cell-based
[26] = system: RCC4/VHL; assay: Inhibition of autophagic flux in human RCC4/VHL cells assessed as increase in p62 expression at 2.5 to 10 uM incubated for 24 hrs by Western blot analysis; format: functional, cell-based
[27] = system: RCC4; assay: Induction of autophagy in VHL-deficient human RCC4 cells assessed as increase in LC3B1 expression incubated for 24 hrs by Western blot analysis; format: functional, cell-based
[28] = system: RCC4; assay: Induction of autophagy in VHL-deficient human RCC4 cells assessed as increase in LC3B2 expression incubated for 24 hrs by Western blot analysis; format: functional, cell-based
[29] = system: RCC4/VHL; assay: Induction of autophagy in human RCC4/VHL cells assessed as increase in LC3B1 expression incubated for 24 hrs by Western blot analysis; format: functional, cell-based
[30] = system: RCC4/VHL; assay: Induction of autophagy in human RCC4/VHL cells assessed as increase in LC3B2 expression incubated for 24 hrs by Western blot analysis; format: functional, cell-based
[31] = system: RCC4; assay: Induction of cellular phenotype changes in VHL-deficient human RCC4 cells at 2.5 to 10 uM incubated for 24 hrs by inverted microscopic analysis; format: functional, cell-based
[32] = system: RCC4/VHL; assay: Induction of cellular phenotype changes in human RCC4/VHL cells at 2.5 to 10 uM incubated for 24 hrs by inverted microscopic analysis; format: functional, cell-based
[33] = system: RCC4; assay: Induction of DNA damage in VHL-deficient human RCC4 cells assessed as induction of p53 expression at 1.25 uM incubated for 24 hrs by Western blot analysis; format: functional, cell-based
[34] = system: RCC4/VHL; assay: Induction of DNA damage in human RCC4/VHL cells assessed as induction of p53 expression at 1.25 uM incubated for 24 hrs by Western blot analysis; format: functional, cell-based
[35] = system: RCC4; assay: Induction of autophagy in VHL-deficient human RCC4 cells assessed as increase in conversion of LC3B1 to LC3B2 expression at 1.25 uM incubated for 24 hrs by Western blot analysis; format: functional, cell-based
[36] = system: RCC4/VHL; assay: Induction of autophagy in human RCC4/VHL cells assessed as increase in conversion of LC3B1 to LC3B2 expression at 1.25 uM incubated for 24 hrs by Western blot analysis; format: functional, cell-based
[37] = system: RCC4; assay: Inhibition of autophagic flux in VHL-deficient human RCC4 cells assessed as increase in p62 expression at 1.25 uM incubated for 24 hrs by Western blot analysis; format: functional, cell-based
[38] = system: RCC4/VHL; assay: Inhibition of autophagic flux in human RCC4/VHL cells assessed as increase in p62 expression at 1.25 uM incubated for 24 hrs by Western blot analysis; format: functional, cell-based
[39] = system: RCC4; assay: Induction of apoptosis in VHL-deficient human RCC4 cells assessed as cleavage of pro-caspase 3 at 1.25 uM incubated for 24 hrs by Western blot analysis; format: functional, cell-based
[40] = system: RCC4; assay: Induction of cellular phenotype changes in VHL-deficient human RCC4 cells at 1.25 uM incubated for 24 hrs by inverted microscopic analysis; format: functional, cell-based
[41] = system: RCC4/VHL; assay: Induction of apoptosis in human RCC4/VHL cells assessed as cleavage of pro-caspase 3 at 1.25 uM incubated for 24 hrs by Western blot analysis; format: functional, cell-based
[42] = system: RCC4/VHL; assay: Induction of cellular phenotype changes in human RCC4/VHL cells at 1.25 uM incubated for 24 hrs by inverted microscopic analysis; format: functional, cell-based

O=C(/C=C/c1ccc(O)cc1O)OCCc1ccccc1
Activity [1]: 100%

O=C(/C=C/c1cc(O)cc(O)c1)OCCc1ccccc1
Activity [1]: 100%

O=C(/C=C/c1cccc(O)c1O)OCCCc1ccccc1
inhibition [2]: Active

O=C(/C=C/c1ccc(O)cc1O)OCCCc1ccccc1
inhibition [2]: inactive

O=C(/C=C/c1cccc(O)c1O)OCCc1ccccc1
inhibition [2]: Active
inhibition [3]: > 50%
IC50 [4]: 0.89 µM

O=C(/C=C/c1ccc(O)c(O)c1)OCCc1ccccc1 [CAFFEIC ACID PHENETHYL ESTER]
inhibition [2]: Active
inhibition [3]: Active
IC50 [5]: 18.2 µM
IC50 [6]: 12.6 µM
IC50 [7]: 14 µM
IC50 [8]: 29.1 µM
IC50 [9]: 19.8 µM
IC50 [10]: 26.8 µM
IC50 [11]: 43.8 µM
Ratio IC50 [12]: 2.1

COc1cccc2c1C(=O)c1c(O)c3c(c(O)c1C2=O)C[C@@](O)(C(=O)CO)C[C@@H]3O[C@H]1C[C@H](N)[C@H](O)[C@H](C)O1
Activity [13]: inactive
Activity [14]: Active
Activity [15]: Active
Activity [16]: inactive

O=C1O[C@H]([C@@H](O)CO)C(O)=C1O [ASCORBIC ACID]
IC50 [5]: 13.9 µM

O=C(/C=C/c1cc(O)ccc1O)OCCCc1ccccc1
inhibition [2]: Active

CC(c1cc2ccccc2s1)N(O)C(N)=O (configuration not stated) [ZILEUTON]
inhibition [2]: Active
inhibition [3]: Active
IC50 [5]: > 100 µM

O=C(/C=C/c1cc(O)ccc1O)OCCc1ccccc1
inhibition [3]: > 50%
inhibition [17]: Dose-dependent effect
IC50 [4]: 0.33 µM
Ratio IC50 [18]: 7
Ratio IC50 [19]: 3
IC50 [5]: 16.4 µM
IC50 [6]: 0.96 µM
Activity [20]: Active
Activity [7]: Dose-dependent effect
IC50 [7]: 8 µM
Activity [8]: Dose-dependent effect
IC50 [8]: 99.6 µM
IC50 [9]: 5.04 µM
IC50 [10]: 34.8 µM
IC50 [11]: > 100 µM
Activity [21]: Dose-dependent effect
Activity [22]: inactive
Activity [23]: inactive
Activity [24]: Active
inhibition [25]: Active
inhibition [26]: Active
Activity [27]: Dose-dependent effect
Activity [28]: Dose-dependent effect
Activity [29]: Dose-dependent effect
Activity [30]: Dose-dependent effect
Activity [1]: 25%
Ratio IC50 [12]: 12
Activity [31]: inactive
Activity [32]: inactive

Cc1cccc(Nc2nc(-c3ccncc3)cs2)c1
IC50 [6]: 12.6 µM
IC50 [7]: 1.2 µM
IC50 [8]: 5.3 µM
IC50 [9]: 8.6 µM
IC50 [10]: 5.7 µM
IC50 [11]: 6.9 µM
Activity [33]: inactive
Activity [34]: inactive
Activity [35]: Active
Activity [36]: Active
inhibition [37]: Active
inhibition [38]: Active
Ratio IC50 [12]: 4.4
Activity [39]: inactive
Activity [40]: inactive
Activity [41]: inactive
Activity [42]: inactive

O=C(/C=C/c1cc(O)ccc1O)CCc1ccccc1
inhibition [2]: Active
inhibition [3]: > 50%
IC50 [4]: 0.53 µM
Ratio IC50 [18]: 4
Ratio IC50 [19]: 1.8
IC50 [5]: 15 µM
IC50 [6]: 5.1 µM
IC50 [7]: 9.9 µM
IC50 [8]: 12.3 µM
IC50 [9]: 9.2 µM
IC50 [10]: 20.5 µM
IC50 [11]: 19 µM

O=C(OCCc1ccccc1)c1cc(O)ccc1O
inhibition [2]: inactive
IC50 [5]: 17.3 µM
IC50 [6]: 3.9 µM
IC50 [7]: 42.8 µM
IC50 [8]: > 100 µM
IC50 [9]: 14.8 µM
IC50 [10]: > 100 µM
IC50 [11]: > 100 µM
